Reference: patent publication US20150126464A1, “THERAPEUTIC DRUG AND THERAPEUTIC METHOD FOR NEUROLOGICAL DISEASES INCLUDING ALZHEIMER'S DISEASE ASSOCIATED WITH 1,25D3-MARRS” (priority 2013, published 2015)
Counter-ions that a name gives are not always drawn.

Assays:
[1] = tested on: rat cortical neurons (SD E18); assay: Measurement of axon density in cortical neurons with or without 1,25D3-MARRS knockdown; details: 1 μM, 4 days, vs vehicle; for density of pNF-H-positive axons per MAP2-positive neuron, control groups: control (no 1,25D3-MARRS knockdown) cortical neurons; for density of pNF-H-positive axons per MAP2-positive neuron, 1,25D3-MARRS knockdown groups: neurons transfected with siRNA for 1,25D3-MARRS (400 nM)
Text: siRNAs were transfected into rat cortical neurons (SD E18) according to the manufacturer's protocol for nucleofection (Lonza, Bazel, Switzerland). […] Two days after the transfection, the cells were fixed and double-immunostained with a monoclonal antibody against a neuron marker MAP2a/2b (1:500, NeoMarker, Fremont, Calif., USA) and Ab099 clone, a specific antibody for 1,25D3-MARRS (1:500, provided by Dr. Nemere).
Twelve to fourteen images were captured. The lengths of the pNF-H-positive axons were measured using an image analyzer Neurocyte (Kurabo), which automatically traces and measures neurite length without measuring the cell bodies. The sum of the axon lengths was divided by the number of MAP2-positive neurons.
1,25D3-MARRS was knocked down using siRNA transfection. […] Two days after the siRNA transfection, denosomin (1 μM) or a vehicle solution was applied to the cells. Further, after 4-day incubation, the cells were double-immunostained for pNF-H and MAP2 to measure the axonal length per neuron.

[2] = tested on: 5XFAD mice; assay: Novel object recognition test in 5XFAD mice (Alzheimer's disease model); assay type: in vivo, mouse
Text: Transgenic mice (5XFAD) as an animal model of AD were obtained from the Jackson Laboratory (Bar Harbor, Me., USA). The 5XFAD mice overexpress human APP695 cDNA having Swedish mutation (K670N and M671L), Florida mutation (I716V) and London mutation (V717I) and human PS1 cDNA (M146L and L286V) under the transcriptional control of the neuron-specific mouse Thy-1 promoter (Oakley, H. et al., J Neurosci, 26, 10129-10140, 2006). They were maintained by crossing hemizygous transgenic mice with B6/SJL F1 breeders.
To investigate the effect of diosgenin on 5XFAD, hemizygous 5XFAD mice (female, 6 to 8 months old) and non-transgenic littermate wild-type mice (female, 6 to 8 months old) were used. These mice were obtained by crossing hemizygous 5XFAD mice and B6/SJL F1 mice. All mice were housed with free access to food and water and were kept in a controlled environment (22±2° C., 50±5% humidity, 12-h light/dark cycle starting at 7:00 am).
Diosgenin was dissolved in dimethyl sulfoxide (DMSO) at 10 times the final concentration to give a stock solution. The stock solution was diluted in physiological saline to the final concentration immediately before treatment. The diosgenin solution was intraperitoneally administered to 5XFAD mice once a day (10 μmol/kg=4.14 mg/kg) for 20 days. On the last day of administration (Day 20), each mouse was housed in a separate open-field box made of polyvinyl chloride (33 cm×[…]; height: 26.5 cm) and habituated to the environment for 10 min. […]
For each mouse of Example 1, Comparative Examples 1 and 2, and Reference Example 1, the path during the 10-minute habituation was tracked using a digital camera system. The distance each mouse traveled during the 10 minutes was analyzed as locomotion activity with EthoVision 3.0 (Noldus, Wageningen, The Netherlands). […] In the present invention, the ratio (%) of the exploration time for the novel object to the total exploration time was calculated as an exploration preferential index. […]

[3] = tested on: 5XFAD mice; assay: Immunohistochemistry of brain slices of 5XFAD mice (amyloid plaques, PHF-tau, abnormal axons, presynapses); assay type: in vivo, mouse; details: vs vehicle-treated 5XFAD, diosgenin 10 μmol/kg, memantine hydrochloride 200 μmol/kg/day i.p. 20 days
Experimental: One day after the novel object recognition test, the mice were anesthetized and transcardially perfused with cold physiological saline. The brains were carefully removed from the skull, immediately immersed in 10 to 30% sucrose-PBS and stored at -80° C. The brains were cut in 20-μm successive coronal slices every 100 μm in the parietal area (bregma 1.4-2 mm) sections using a cryostat (C[…], Leica, Heidelberg, Germany). The slices were fixed with 4% paraformaldehyde and stained with a polyclonal antibody against Aβ (1-40/42) (1:300) (Chemicon, Temecula, Calif., USA), a monoclonal antibody against pNF-H (1:500) (Covance, Emeryville, Calif., USA), a monoclonal antibody against synaptophysin (1:500) (Sigma-Aldrich), and a monoclonal antibody against PHF-tau (Thermo Scientific, Rockford, Ill., USA) at 4° C. for 20 hours. […] Three successive brain slices of the frontal cortex and five successive slices of the hippocampus were captured from a mouse for quantification. Extracellular amyloid plaques were determined by the size (greater than 50 μm in width), and the area of amyloid plaques was measured using the image analyzing software ImageJ. The area of the pNF-H-positive abnormal bulb-like axons was measured using ImageJ for every amyloid plaque in the fluorescent images (324 μm×430 μm). The areas of the synaptophysin-positive presynaptic boutons in every amyloid plaque were measured in fluorescent images (324 μm×430 μm) using Image J. The areas of PHF-tau in every amyloid plaque and outer amyloid plaques were measured in fluorescent images (324 μm×430 μm) using ImageJ.

[4] = tested on: normal mice; assay: Novel object recognition test in normal mice; assay type: in vivo, mouse; details: normal ddY mice, dioscin 30 μmol/kg/day orally 4 days
Experimental: Diosgenin (Wako Pure Chemical Industries, Ltd., Osaka, Japan) was dissolved in ethanol at 10 times the final concentration to give a stock solution, and the stock solution was diluted in a 5% aqueous solution of glucose to the final concentration. The diosgenin solution was intraperitoneally administered to normal mice (ddY mice, male, 6 weeks old) once a day (10 μmol/kg/day) for 5 or 6 days. One hour after the last administration, each mouse was housed in a separate open-field box made of polyvinyl chloride (33 cm×28 cm; height: 26.5 cm), habituated to the environment for 10 minutes, and used in the test.
Using the mice of Example 8 and Comparative Example 11, a novel object recognition test was performed to evaluate the object recognition memory. Testing was carried out in a dimly illuminated room (100 lux). The test was performed as described in Joyashiki, E. et sl., Int J Neurosci, 121, 181-190, 2011 and Tohda, C. et al., Int J Neurosci, 121, 641-648, 2011, written by the inventors and others, except that the time interval between a training session and a test session was 48 hours. As a locomotion index, the path of each mouse was tracked using a digital camera system. The distance each mouse traveled during the 10 minutes was analyzed as locomotion activity with EthoVision 3.0 (Noldus, Wageningen, The Netherlands).
The diosgenin solution was intraperitoneally administered to normal mice (C57BL/6, male, 8 weeks old) (100 μmol/kg/day) for 14 days. On the day after the 14th administration, the mice were used in the test.
Using the mice of Example 9 and Comparative Example 12, the novel object recognition test was performed. The test was performed under the conditions as described above.
Dioscin in an amount of 30 μmol/kg/day was orally administered to normal mice (ddY mice, male, 6 weeks old) for 4 days. Dioscin (Chromadex, Irvine, Calif., USA) was dissolved in ethanol at 10 times the final concentration to give a stock solution, and the stock solution was diluted in a 5% aqueous solution of glucose to the final concentration. […]

[5] = Body weight during dioscin administration; assay type: in vivo, mouse
Experimental: Dioscin in an amount of 30 μmol/kg/day was orally administered to normal mice (ddY mice, male, 6 weeks old) for 4 days. Dioscin (Chromadex, Irvine, Calif., USA) was dissolved in ethanol at 10 times the final concentration to give a stock solution, and the stock solution was diluted in a 5% aqueous solution of glucose to the final concentration. One hour after the last administration, the mice were used in the test.
Dioscin (30 μmol/kg/day) was orally administered to 5XFAD mice (male, 20 weeks old) for 6 days. One hour after the last administration, the training session was initiated.

C[C@@H]([C@H]1CC[C@H]2[C@@H]3CC=C4C[C@@H](O)CC[C@]4(C)[C@H]3CC[C@]12C)[C@H]1CC=C(CO)C(=O)O1 [denosomin]
density of pNF-H-positive axons per MAP2-positive neuron, control groups [1]: significantly increased
density of pNF-H-positive axons per MAP2-positive neuron, 1,25D3-MARRS knockdown groups [1]: almost completely inhibited

CC12CC3CC(C)(C1)CC(N)(C3)C2 [memantine, Memantine hydrochloride, reference compound]
novel object preferential index (exploration preferential index), test session ([2]; i.p. once a day for 20 days, diosgenin 10 μmol/kg, memantine hydrochloride 200 μmol/kg/day, 30 min training-test interval): 50%
area of abnormal axons (swollen axon area) per amyloid plaque in the cerebral cortex [3]: not significantly reduced
area of abnormal axons (swollen axon area) per amyloid plaque in the hippocampus [3]: inversely significantly increased
total area of PHF-tau in the cerebral cortex [3]: not significantly different
total area of PHF-tau in the hippocampus [3]: inversely significantly increased
total area of amyloid plaques in the hippocampus [3]: significantly reduced in the hippocampus

C[C@@H]1CC[C@@]2(OC1)O[C@H]1C[C@H]3[C@@H]4CC=C5C[C@@H](O[C@@H]6O[C@H](CO)[C@@H](O[C@@H]7O[C@@H](C)[C@H](O)[C@@H](O)[C@H]7O)[C@H](O)[C@H]6O[C@@H]6O[C@@H](C)[C@H](O)[C@@H](O)[C@H]6O)CC[C@]5(C)[C@H]4CC[C@]3(C)[C@H]1[C@@H]2C [dioscin]
behavior index of exploratory behavior for the novel object ([2]; dioscin 30 μmol/kg/day orally 6 days, one hour training-test interval): higher than 50%
behavior index of exploratory behavior for the novel object [4]: higher than 50%
body weight ([5]; 5XFAD mice, dioscin 30 μmol/kg/day orally 6 days): None of the groups showed marked change
transition of body weight ([5]; normal ddY mice, dioscin 30 μmol/kg/day orally 4 days): no significant difference

C=C1/C(=C\C=C2/CCC[C@]3(C)[C@@H]([C@H](C)CCCC(C)(C)O)CC[C@@H]23)C[C@@H](O)C[C@@H]1O [DHVD3, 1α,25-dihydroxy vitamin D3, reference compound]
density of pNF-H-positive axons per MAP2-positive neuron, control groups [1]: significantly increased
density of pNF-H-positive axons per MAP2-positive neuron, 1,25D3-MARRS knockdown groups [1]: did not show any difference
